Measured values reported in ChEMBL document CHEMBL2385072, “Development of oleanane-type triterpenes as a new class of HCV entry inhibitors” (J Med Chem, 2013).

Key:
Conditions in all cases: HEK-293T
Hepatitis C virus [1] = experiment: Antiviral activity against pseudo HCV infected in human 293T cells assessed as inhibition of HCV pseudo particles entry at 10 uM after 72 hrs by luciferase reporter gene assay; format: functional, Hepacivirus hominis
Hepatitis C virus [2] = experiment: Antiviral activity against pseudo HCV infected in human 293T cells assessed as inhibition of HCV pseudo particles entry at 1 uM after 72 hrs by luciferase reporter gene assay; format: functional, Hepacivirus hominis
[3] = tested on: Vesicular stomatitis virus; experiment: Antiviral activity against pseudo VSV infected in human 293T cells assessed as inhibition of vesicular stromatis G protein pseudo particles entry at 1 uM after 72 hrs by luciferase reporter gene assay; format: functional
Hepatitis C virus [4] = experiment: Antiviral activity against pseudo HCV infected in human 293T cells assessed as inhibition of HCV pseudo particles entry at 5 uM after 72 hrs by luciferase reporter gene assay; format: functional, Hepacivirus hominis
[5] = tested on: Vesicular stomatitis virus; experiment: Antiviral activity against pseudo VSV infected in human 293T cells assessed as inhibition of vesicular stromatis G protein pseudo particles entry at 5 uM after 72 hrs by luciferase reporter gene assay; format: functional

Row | Structure (SMILES) | inhibition at 10 µM (Hepatitis C virus [1]) [%] | inhibition at 1 µM (Hepatitis C virus [2]) [%] | inhibition at 1 µM [3] [%] | inhibition at 5 µM (Hepatitis C virus [4]) [%] | inhibition at 5 µM [5] [%]
1 | CC1(C)CC[C@]2(C(=O)O)CC[C@]3(C)C(=CC[C@@H]4[C@@]5(C)C[C@@H](O)[C@H](O)C(C)(C)[C@@H]5CC[C@]43C)[C@@H]2C1 [MASLINIC ACID] | 0 |  |  |  | 
2 | CC1(C)CC[C@]2(C(=O)NCCCC[C@H](N)C(=O)O)CC[C@]3(C)C(=CC[C@@H]4[C@@]5(C)CC[C@H](O)C(C)(C)[C@@H]5CC[C@]43C)[C@@H]2C1 | 60 |  |  |  | 
3 | CC1(C)CC[C@]2(C(=O)O)[C@H](O)C[C@]3(C)C(=CC[C@@H]4[C@@]5(C)CC[C@H](OS(=O)(=O)O)C(C)(C)[C@@H]5CC[C@]43C)[C@@H]2C1 |  | 33.4 | 39.1 | 55.2 | 40.4
4 | CC(=O)O[C@@H]1[C@H](OC(=O)[C@]23CCC(C)(C)C[C@H]2C2=CC[C@@H]4[C@@]5(C)CC[C@H](O)C(C)(C)[C@@H]5CC[C@@]4(C)[C@]2(C)C[C@H]3O)OC[C@@H](OC(C)=O)[C@H]1OC(C)=O |  | 19.3 | 17.1 | 60.6 | 20.1
5 | CC(=O)O[C@@H]1[C@@H](OC(C)=O)[C@H](OC(C)=O)CO[C@H]1n1cc(CNC(=O)[C@]23CCC(C)(C)C[C@H]2C2=CC[C@@H]4[C@@]5(C)CC[C@H](O)C(C)(C)[C@@H]5CC[C@@]4(C)[C@]2(C)C[C@H]3O)nn1 |  | 35.9 | 39.8 | 87.3 | 47.7
6 | COC(=O)[C@]12CCC(C)(C)C[C@H]1C1=CC[C@@H]3[C@@]4(C)CC[C@H](O[Si](C)(C)C(C)(C)C)C(C)(C)[C@@H]4CC[C@@]3(C)[C@]1(C)C[C@H]2O |  | 44.3 | 27.4 | 27.8 | 37.4
7 | COC(=O)[C@]12CCC(C)(C)C[C@H]1C1=CC[C@@H]3[C@@]4(C)CCC(=O)C(C)(C)[C@@H]4CC[C@@]3(C)[C@]1(C)C[C@H]2O |  | 3.5 | 21.5 | 64.7 | 55.4
8 | CC1(C)CC[C@]2(C(=O)O[C@@H]3O[C@H](CO)[C@@H](O)[C@H](O)[C@H]3O)[C@H](O)C[C@]3(C)C(=CC[C@@H]4[C@@]5(C)CC[C@H](O)C(C)(C)[C@@H]5CC[C@]43C)[C@@H]2C1 |  | 30.6 | 12.9 | 67.5 | 5.6
9 | COC(=O)[C@]12CCC(C)(C)C[C@H]1C1=CC[C@@H]3[C@@]4(C)CC[C@H](OCc5ccccc5)C(C)(C)[C@@H]4CC[C@@]3(C)[C@]1(C)C[C@H]2O |  | 10.5 | 12.6 | 5.2 | 25
10 | COC(=O)[C@]12CCC(C)(C)C[C@H]1C1=CC[C@@H]3[C@@]4(C)CC[C@H](OC(C)=O)C(C)(C)[C@@H]4CC[C@@]3(C)[C@]1(C)C[C@H]2OC(C)=O |  | 13.5 | 15.8 | 20.1 | 24.2
11 | COC(=O)[C@@]12C=C[C@]3(C)C(=CC[C@@H]4[C@@]5(C)CC=CC(C)(C)[C@@H]5CC[C@]43C)[C@@H]1CC(C)(C)CC2 |  | 35.8 | 20.9 | 14 | 33.9
12 | CC1(C)CC[C@]2(C(=O)O)[C@H](O)C[C@]3(C)C(=CC[C@@H]4[C@@]5(C)[C@H](O)C[C@H](O)C(C)(C)[C@@H]5CC[C@]43C)[C@@H]2C1 |  | 14.3 | 7.9 | 35.2 | 11.8
13 | CC1(C)CC[C@]2(C(=O)O)[C@H](OS(=O)(=O)O)C[C@]3(C)C(=CC[C@@H]4[C@@]5(C)CC[C@H](O)C(C)(C)[C@@H]5CC[C@]43C)[C@@H]2C1 |  | 1 | 38.5 | -2.7 | 34.7
14 | COC(=O)[C@]12CCC(C)(C)C[C@H]1C1=CC[C@@H]3[C@@]4(C)CC[C@H](O)C(C)(C)[C@@H]4CC[C@@]3(C)[C@]1(C)C[C@H]2OCc1ccccc1 |  | 4.6 | 1.6 | 5.8 | -3.9
15 | CC1(C)CC[C@]2(C(=O)NCc3cn([C@@H]4OC[C@@H](O)[C@@H](O)[C@@H]4O)nn3)[C@H](O)C[C@]3(C)C(=CC[C@@H]4[C@@]5(C)CC[C@H](O)C(C)(C)[C@@H]5CC[C@]43C)[C@@H]2C1 |  | 18.7 | 8.4 | 32.2 | 25.1
16 | CC1(C)CC[C@]2(C(=O)O)[C@H](OCc3ccccc3)C[C@]3(C)C(=CC[C@@H]4[C@@]5(C)CC[C@H](OCc6ccccc6)C(C)(C)[C@@H]5CC[C@]43C)[C@@H]2C1 |  | 5.5 | 28.8 | 28.2 | 30.6
17 | CC1(C)CC[C@]2(C(=O)NCc3cn([C@@H]4O[C@H](CO)[C@@H](O[C@H]5O[C@H](CO)[C@@H](O[C@H]6O[C@H](CO)[C@@H](O)[C@H](O)[C@H]6O)[C@H](O)[C@H]5O)[C@H](O)[C@H]4O)nn3)[C@H](O)C[C@]3(C)C(=CC[C@@H]4[C@@]5(C)CC[C@H](O)C(C)(C)[C@@H]5CC[C@]43C)[C@@H]2C1 |  | 12.8 | 19.7 | 39 | 27.4
18 | CC(=O)OC[C@H]1O[C@@H](OC(=O)[C@]23CCC(C)(C)C[C@H]2C2=CC[C@@H]4[C@@]5(C)CC[C@H](O)C(C)(C)[C@@H]5CC[C@@]4(C)[C@]2(C)C[C@H]3O)[C@H](OC(C)=O)[C@@H](OC(C)=O)[C@H]1OC(C)=O |  | 43.4 | 29.3 | 81.6 | 30.7
19 | CC(=O)OC[C@H]1O[C@@H](n2cc(CNC(=O)[C@]34CCC(C)(C)C[C@H]3C3=CC[C@@H]5[C@@]6(C)CC[C@H](O)C(C)(C)[C@@H]6CC[C@@]5(C)[C@]3(C)C[C@H]4O)nn2)[C@H](OC(C)=O)[C@@H](OC(C)=O)[C@@H]1O[C@H]1O[C@H](COC(C)=O)[C@@H](O[C@H]2O[C@H](COC(C)=O)[C@@H](OC(C)=O)[C@H](OC(C)=O)[C@H]2OC(C)=O)[C@H](OC(C)=O)[C@H]1OC(C)=O |  | 45.4 | 17.7 | 62.9 | 14
20 | COC(=O)[C@]12CCC(C)(C)C[C@H]1C1=CC[C@@H]3[C@@]4(C)CCC(=O)C(C)(C)[C@@H]4CC[C@@]3(C)[C@]1(C)CC2=O |  | 48.2 | -10 | 70.1 | -2.8
21 | COC(=O)[C@]12CCC(C)(C)C[C@H]1[C@H]1C(O)C[C@@H]3[C@@]4(C)CC[C@H](O)C(C)(C)[C@@H]4CC[C@@]3(C)[C@]1(C)C[C@H]2O (some centres not stated) |  | 22.6 | 35.8 | 51 | 43.5
22 | CC1(C)CC[C@]2(C(=O)O[C@@H]3O[C@H](CO)[C@H](O)[C@H](O)[C@H]3O)[C@H](O)C[C@]3(C)C(=CC[C@@H]4[C@@]5(C)CC[C@H](O)C(C)(C)[C@@H]5CC[C@]43C)[C@@H]2C1 |  | 40.9 | 8.1 | 61.6 | 14.6
